{
  "source": "patent US8603964B2",
  "about": "“Methods for modulating angiogenesis via dystrophin Dp71” (Institut National de la Sante et de la Recherche Medicale …, priority 2008, dated 2013)",
  "key": {"[1]": {"tested_on": "aortic rings explants of wt mice (C57BL/6)", "assay": "Mouse aortic ring explant neovessel formation, wild-type mice", "type": "cell-based", "description": "Thoracic aortas were removed from 2 months-old mice (C57BL/6 and Dp71-null mice) killed by CO2 asphyxiation and immediately transferred to a culture dish containing ice-cold endothelial cell basal medium (EGM-2; Cambrex Bioscience). The periaortic fibroadipose tissue was carefully removed with fine microdissecting forceps and scissors, paying special attention not to damage the aortic wall. One millimeters-long aortic rinaortic rings explants gs (15 per aorta from 12 mice) were sectioned and rinsed extensively in eight consecutive washes of EGM-2. The rings were then individually embedded in 48-well plates previously coated with 50 μl synthetic basement membrane (Matrigel; BD Bioscience) per well. After 1 hour, 500 μl EGM-2 was added to each well, and the cultures were incubated at 37° C. for 5 days. The culture medium was change each day. […] For all cell treatment, the final DMSO concentration was adjusted to 0.1%. The aortic rings were photographed on day 4 at ×2 magnification with a macroscope (Leica). The angiogenic response was determined by measuring the area of neovessel formation on computer (ImageJ or Photoshop software)."}, "[2]": {"tested_on": "aortic rings explants of Dp71-null mice", "assay": "Mouse aortic ring explant neovessel formation, Dp71-null mice", "type": "cell-based", "set-up": "dose or concentration left out as unconfirmed", "conditions": "same treatment with beta-nf, day 4", "description": "The Dp71-null mice strain was obtained by replacing, via homologous recombination, most of the first and unique exon of Dp71 and of a small part of the Dp71 first intron with a sequence encoding a β-gal-neomycine-(beta-gal) resistance chimeric protein (β-geo). This enabled to monitor with great sensitivity the activity of the promoter using X-gal staining (Sarig et al., 1999).\nThoracic aortas were removed from 2 months-old mice (C57BL/6 and Dp71-null mice) killed by CO2 asphyxiation and immediately transferred to a culture dish containing ice-cold endothelial cell basal medium (EGM-2; Cambrex Bioscience). The periaortic fibroadipose tissue was carefully removed with fine microdissecting forceps and scissors, paying special attention not to damage the aortic wall. One millimeters-long aortic rinaortic rings explants gs (15 per aorta from 12 mice) were sectioned and rinsed extensively in eight consecutive washes of EGM-2. The rings were then individually embedded in 48-well plates previously coated with 50 μl synthetic basement membrane (Matrigel; BD Bioscience) per well. After 1 hour, 500 μl EGM-2 was added to each well, and the cultures were incubated at 37° C. for 5 days. The culture medium was change each day. […] The angiogenic response was determined by measuring the area of neovessel formation on computer (ImageJ or Photoshop software)."}, "Dp71": {"tested_on": "Dp71", "conditions": "cited from earlier work"}},
  "data": [
    {"smiles": "O=c1cc(-c2ccccc2)oc2ccc3ccccc3c12", "note": "[beta-nf, beta-naphtoflavone]", "values": [
      {"measurement": "inhibition of neovessel formation", "setting": "[1]; explants of wt mice, beta-nf in 0.1% DMSO, area of neovessel formation on day 4, P<0.001", "value": 50, "unit": "%"},
      {"measurement": "neoangiogenesis in aortic rings explants (in words)", "setting": "[1]; wild mice strain expressing Dp71", "value": "inhibition of neoangiogenesis"},
      {"measurement": "effect on neovessel formation", "setting": "[2]", "value": "without effect"},
      {"measurement": "Dp71 expression", "setting": "Dp71", "value": "inhibits Dp71 expression"}
    ]}
  ]
}
